Data published in patent publication US20240189438A1, “DRUG CONJUGATE OF GLUCOCORTICOID RECEPTOR AGONIST, AND APPLICATION THEREOF IN MEDICINE” (Shanghai Senhui Medicine Co., Ltd., priority 2021, published 2024).

Tests used:
[1] = system: GRE reporter gene in A549 cells; experiment: GRE reporter gene assay in A549 cells (MMTV-Luc); type: cell-based; conditions: 24 h; for EC50: Homo sapiens
Procedure: 4. GRE reporter gene assay A549 cells were plated (40,000 cells/96-well plate), transfected with pGL4.36 (MMTV-Luc, 100 ng/well) using lipo3000, cultured overnight and then incubated with different concentrations of small-molecule steroids. After 24 h, the expression of luciferase in the reporter gene system was detected using the Bright-Glo (promega) assay reagent.

human recombinant GR = target: T1, human recombinant GR (Homo sapiens, UniProt P04150); experiment: human glucocorticoid NHR (radiolabeled agonist) binding assay; conditions: competition with 5 nM [3H]dexamethasone, 4° C., 24 h
T1 sequence (P04150 1-777): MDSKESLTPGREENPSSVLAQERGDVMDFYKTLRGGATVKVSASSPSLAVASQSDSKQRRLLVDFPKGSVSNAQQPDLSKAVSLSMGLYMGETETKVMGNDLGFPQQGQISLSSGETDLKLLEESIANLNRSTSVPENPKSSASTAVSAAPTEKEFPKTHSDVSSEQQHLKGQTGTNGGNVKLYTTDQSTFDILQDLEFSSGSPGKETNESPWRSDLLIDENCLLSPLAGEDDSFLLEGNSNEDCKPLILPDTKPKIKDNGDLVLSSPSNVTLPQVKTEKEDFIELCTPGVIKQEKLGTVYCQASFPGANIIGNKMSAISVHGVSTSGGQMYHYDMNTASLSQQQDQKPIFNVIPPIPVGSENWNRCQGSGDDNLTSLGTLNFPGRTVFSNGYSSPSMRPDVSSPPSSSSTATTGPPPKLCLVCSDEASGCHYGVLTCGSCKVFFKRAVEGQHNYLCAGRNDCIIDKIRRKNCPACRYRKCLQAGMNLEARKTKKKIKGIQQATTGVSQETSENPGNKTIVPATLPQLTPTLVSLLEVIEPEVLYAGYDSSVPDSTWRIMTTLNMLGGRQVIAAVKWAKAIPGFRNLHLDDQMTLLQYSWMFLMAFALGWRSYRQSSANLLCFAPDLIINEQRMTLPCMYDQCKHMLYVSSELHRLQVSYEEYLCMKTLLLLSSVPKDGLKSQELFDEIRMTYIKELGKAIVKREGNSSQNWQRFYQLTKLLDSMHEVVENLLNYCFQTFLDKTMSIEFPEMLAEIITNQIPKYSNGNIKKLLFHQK
Procedure: 2. Glucocorticoid Receptor Binding Assay
The assays were based on the following principle: Different concentrations of a small-molecule steroid and 5 nM [3H]dexamethasone are incubated with human recombinant GR at 4° C. for 24 h. The small-molecule steroid competes with [3H]dexamethasone for binding to human GR. The binding activity of the small-molecule steroid for GR can be calculated by counting the number of [3H]dexamethasone molecules that bind specifically to the receptor.

[2] = target: T2, mineralocorticoid receptor (MR) (Homo sapiens, UniProt P08235); experiment: Mineralocorticoid receptor agonist activity, PathHunter NHR nuclear translocation assay; type: cell-based; conditions: PathHunter NHR CHO-K1 cells
T2 construct: expressed in transfected cells; host or cells: PathHunter NHR CHO-K1 cells
T2 sequence (P08235 1-984): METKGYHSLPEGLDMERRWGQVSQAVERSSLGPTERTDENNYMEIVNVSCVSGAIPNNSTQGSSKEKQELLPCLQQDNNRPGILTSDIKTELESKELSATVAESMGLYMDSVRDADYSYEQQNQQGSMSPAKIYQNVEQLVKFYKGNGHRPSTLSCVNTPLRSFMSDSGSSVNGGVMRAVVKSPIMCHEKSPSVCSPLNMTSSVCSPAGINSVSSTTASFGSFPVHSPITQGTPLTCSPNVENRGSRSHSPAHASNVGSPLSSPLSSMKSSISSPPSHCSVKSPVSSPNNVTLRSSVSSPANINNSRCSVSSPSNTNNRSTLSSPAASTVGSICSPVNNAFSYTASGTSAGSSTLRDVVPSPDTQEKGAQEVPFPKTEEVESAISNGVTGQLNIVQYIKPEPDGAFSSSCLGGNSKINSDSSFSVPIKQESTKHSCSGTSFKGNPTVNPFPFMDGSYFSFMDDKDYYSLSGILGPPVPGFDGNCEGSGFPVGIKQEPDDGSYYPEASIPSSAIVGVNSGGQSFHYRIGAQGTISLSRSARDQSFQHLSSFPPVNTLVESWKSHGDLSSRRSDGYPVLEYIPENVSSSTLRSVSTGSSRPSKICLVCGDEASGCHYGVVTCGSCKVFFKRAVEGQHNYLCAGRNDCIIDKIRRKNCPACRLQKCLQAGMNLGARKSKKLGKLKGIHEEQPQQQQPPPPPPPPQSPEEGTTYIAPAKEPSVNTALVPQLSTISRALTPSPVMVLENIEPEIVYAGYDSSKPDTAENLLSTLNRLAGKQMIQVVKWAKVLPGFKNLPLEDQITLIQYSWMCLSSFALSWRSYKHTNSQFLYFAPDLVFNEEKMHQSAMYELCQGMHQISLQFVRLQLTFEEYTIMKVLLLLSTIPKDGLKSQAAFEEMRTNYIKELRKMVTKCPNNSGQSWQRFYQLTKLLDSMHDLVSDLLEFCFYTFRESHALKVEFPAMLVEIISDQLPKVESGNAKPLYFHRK
Procedure: 3. Mineralocorticoid Receptor Agonist Activity Assay The mineralocorticoid receptor (MR) agonist activity of small-molecule steroids was tested using a PathHunter® NHR nuclear translocation assay. PathHunter NHR CHO-K1 cells were plated onto a 384-well white-wall microplate and co-incubated with test small-molecule steroids at 37° C. in 5% CO2 to induce reactions. Assay signals were generated using the PathHunter assay reagent mix. After one hour of incubation at room temperature, chemiluminescent signals were detected. The data were analyzed using four-parameter curve fitting to generate EC50 values.

[3] = system: mouse collagen antibody-induced arthritis (CAIA) model; experiment: Mouse collagen antibody-induced arthritis (CAIA) model; type: in vivo; conditions: 10 mg/kg intraperitoneally twice a week; FIG. 6
Procedure: Male balb/c mice, 6 w, purchased from the Laboratory Animal Management Department, Shanghai Institute of Planned Parenthood Research. Housing environment: SPF; production license SCXK (Shanghai) 2018-0006; Balb/c mouse certification number: 20180006023393.
Upon arrival, the test animals were acclimatized for 7 days and randomly grouped. On day 0, each group of mice was intraperitoneally injected with 1.5 mg/mouse of type II collagen antibody cocktail (purchased from Chondrex Inc.) for modeling except for the control group. On day 3, each group of mice was intraperitoneally injected with […] of LPS (100 μL) to boost the immune response except for the control group. Administration to each group of mice began on day 5, and limb arthritis was scored every 1-3 days. Mice were dosed according to the following administration regimens. The severity of arthritis in each group of mice was semi-quantitatively scored every 1-3 days and further, the anti-inflammatory activity of anti-TNF-ADCs was evaluated.

Molecule	GRE reporter gene Emax [1] [RLU]	EC50 [1] [nM]	IC50 (human recombinant GR) [nM]	EC50 [2] [nM]	anti-inflammatory activity in the CAIA model [3]
C[C@]12C=CC(=O)C=C1CC[C@@H]1[C@@H]2[C@@H](O)C[C@@]2(C)[C@H]1C[C@H]1O[C@@H](c3ccc(Cc4cccc(N)c4)cc3)O[C@]12C(=O)CO [A-A, reference compound]	1.45E6	0.6			
C[C@]12C=CC(=O)C=C1CC[C@@H]1[C@@H]2[C@@H](O)C[C@@]2(C)[C@H]1C[C@H]1O[C@@H](c3ccc(-c4ccc(-c5cccc(N)c5)cc4)cc3)O[C@]12C(=O)CO [Compound 1-A]	7.67E5	22.6	4.37	> 200000	
C[C@]12C=CC(=O)C=C1CC[C@@H]1[C@@H]2[C@@H](O)C[C@@]2(C)[C@H]1C[C@H]1O[C@@H](c3ccc(C(=O)c4cccc(N)c4)cc3)O[C@]12C(=O)CO [Compound 2-A]			6.69	220	
C[C@]12C=CC(=O)C=C1CC[C@@H]1[C@@H]2[C@@H](O)C[C@@]2(C)[C@H]1C[C@H]1O[C@@H](c3ccc(Cc4cccc5c(N)cccc45)cc3)O[C@]12C(=O)CO [Compound 3-A]	1.53E6	1.47	2.24	190	
C[C@]12C=CC(=O)C=C1CC[C@@H]1[C@@H]2[C@@H](O)C[C@@]2(C)[C@H]1C[C@H]1O[C@@H](c3ccc(C(F)(F)c4cccc(N)c4)cc3)O[C@]12C(=O)CO [Compound 4-A]	1.69E6	2.16	2.12	260	
C[C@]12C=CC(=O)C=C1CC[C@H]1[C@@H]3C[C@H]4O[C@@H](c5ccc(C(=O)c6cccc(N)c6)cc5)O[C@@]4(C(=O)CO)[C@@]3(C)C[C@H](O)[C@@]12F [Compound 5-A]	2.3E7	4.3	5.23		
adalimumab [Humira]					weak anti-inflammatory activity
